Measurements taken from patent US20130149331A1, “RHAMNOSE AND FORSSMAN CONJUGATED IMMUNOGENIC AGENTS” (priority 2011, published 2013).

System: anti-Rha antibodies in normal human serum
Assay: Competitive ELISA assay with free monosaccharides, BSA-R1 immobilized
Assay type: binding
Settings: free monosaccharide 200 mM to 12.5 mM; human serum 1:2000; anti-human IgG detection
Description: Competitive ELISA assay. To further verify the specific antibody against Rha epitopes, inhibition ELISA was performed by immobilizing Rha conjugated BSA (BSA-R1) (10 μg ml^−1) on the 96-well plate, and free D-mannose (Man), D-glucose (Glc), N-Acetyl-Dglucosamine (GlcNAc), D-xylose (Xyl), L-fucose (Fuc), N-Acetyl-D-galactosamine (GalNAc), D-galactose (Gal) and L-rhamnose (Rha) were used as competing antigens (2-fold dilutions from 200 mM to 12.5 mM). After coated with BSA-R1 at 4° C. overnight, the solution was depleted and washed by PBST for three times (three minutes each time). Then, the plate was blocked with 5% (w/v) non-fat milk (PBST) in RT for 1.5 h, and rinsed by PBST once. Normal human serum diluted (1:2000) previously, containing different free monosaccharide at different concentration, was added into the 96-well plate with 0.1 mL per well. After 2 h incubation, the plate was rinsed by PBST 3 times. Then 0.1 mL Horseradish Peroxidase (HRP)-conjugated antihuman IgG antibody (1:3000) was added into each well and stayed in RT for 1 h. Finally, after the plates were washed, enzyme substrate tetramethylbenzidine (TMB) was added and allowed to react for 10-20 min before the enzymatic reaction was terminated by adding 1N HCl and the absorbance was read at wavelength of 450 nm in a FlexStation® 3 Microplate Reader (Molecular devices).

SMILES: C[C@H](O)[C@H](O)[C@@H](O)[C@@H](O)C=O [Rha, L-rhamnose]
- competition for antibodies in human serum: pulled down the antibodies
